Laboratory results: patent EP4755888A1 (ILAb Co., Ltd., priority 2023, dated 2025)

The compounds below were run against PD-1/PD-L1 (Homo sapiens, UniProt Q9NZQ7) (assay: TR-FRET PD-1/PD-L1 binding inhibition at the molecular level (free proteins)). Details: Tag1-PD-L1 and Tag2-PD-1 proteins, twelve concentrations from 200 nM, 2 hours at room temperature, read-out: FRET assay (IC50).
Outline: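 HTRF read-out at 665/620 nm after 2 h at room temperature. Detection used anti-Tag1 Eu cryptate plus anti-Tag2 XL665 antibodies. Tagged PD-L1 and PD-1 proteins were pre-mixed with compound across twelve […] 1:2 dilutions starting at 200 nM.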

Sequence of PD-1/PD-L1 (Q9NZQ7 19-238 limits assumed): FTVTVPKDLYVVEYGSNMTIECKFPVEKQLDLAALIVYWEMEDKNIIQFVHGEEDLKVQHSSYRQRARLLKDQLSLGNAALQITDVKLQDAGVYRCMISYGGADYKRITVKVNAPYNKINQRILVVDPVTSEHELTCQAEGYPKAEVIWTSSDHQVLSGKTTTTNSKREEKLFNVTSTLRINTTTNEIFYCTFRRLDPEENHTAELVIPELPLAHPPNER

Row | Compound | IC50
1 | COc1cc(-c2cccc(-c3cccc(NC(=O)c4cc5n(n4)CCCC5O)c3Cl)c2Cl)cc(F)c1CNCCO (stereo not drawn) [Compound 118, N-(2,2'-dichloro-3"-fluoro-4"-(((2-hydroxyethyl)amino)methyl)-5"-methoxy-[1,1':3',1"-terphenyl]-3-yl)-4-hydroxy-4,5,6,7-tetrahydropyrazolo[1,5-a]pyridine-2-carboxamide] | 10 to 100 nM
2 | COc1cc(-c2cccc(-c3cccc(NC(=O)c4cc5n(n4)CCCC5O)c3Cl)c2Cl)cc(F)c1CNC[C@@H]1CCC(=O)N1 (stereo partly drawn) [Compound 119, N-(2,2'-dichloro-3"-fluoro-5"-methoxy-4"-(((((S)-5-oxopyrrolidin-2-yl)methyl)amino)methyl)-[1,1':3',1"-terphenyl]-3-yl)-4-hydroxy-4,5,6,7-tetrahydropyrazolo[1,5-a]pyridine-2-carboxamide] | 10 to 100 nM
3 | COc1cc(-c2cccc(-c3cccc(NC(=O)c4cc5n(n4)CCCC5NCCO)c3Cl)c2Cl)cc(F)c1CNCCNC(C)=O (stereo not drawn) [Compound 120, N-(4"-(((2-acetamidoethyl)amino)methyl)-2,2'-dichloro-3"-fluoro-5"-methoxy-[1,1':3',1"-terphenyl]-3-yl)-4-((2-hydroxyethyl)amino)-4,5,6,7-tetrahydropyrazolo[1,5-a]pyridine-2-carboxamide] | < 10 nM
4 | COc1cc(-c2cccc(-c3cccc(NC(=O)c4cc5n(n4)CCCC5N4CC[C@@H](O)C4)c3Cl)c2Cl)cc(F)c1CNCCNC(C)=O (stereo partly drawn) [Compound 121, N-(4"-(((2-acetamidoethyl)amino)methyl)-2,2'-dichloro-3"-fluoro-5"-methoxy-[1,1':3',1"-terphenyl]-3-yl)-4-((R)-3-hydroxypyrrolidin-1-yl)-4,5,6,7-tetrahydropyrazolo[1,5-a]pyridine-2-carboxamide] | < 10 nM
5 | COc1cc(-c2cccc(-c3cccc(NC(=O)c4cc5n(n4)CCCC5NCCO)c3Cl)c2Cl)cc(F)c1CN1CC[C@@H](O)C1 (stereo partly drawn) [Compound 122, N-(2,2'-dichloro-3"-fluoro-4"-(((R)-3-hydroxypyrrolidin-1-yl)methyl)-5"-methoxy-[1,1':3',1"-terphenyl]-3-yl)-4-((2-hydroxyethyl)amino)-4,5,6,7-tetrahydropyrazolo[1,5-a]pyridine-2-carboxamide] | < 10 nM
6 | COc1cc(-c2cccc(-c3cccc(NC(=O)c4cc5n(n4)CCCC5N4CC[C@@H](O)C4)c3Cl)c2Cl)cc(F)c1CN1CC[C@@H](O)C1 (stereo partly drawn) [Compound 123, N-(2,2'-dichloro-3"-fluoro-4"-(((R)-3-hydroxypyrrolidin-1-yl)methyl)-5"-methoxy-[1,1':3',1 "-terphenyl]-3-yl)-4-((R)-3-hydroxypyrrolidin-1-yl)-4,5,6,7-tetrahydropyrazolo[1,5-a]pyridine-2-carboxamide] | < 10 nM
7 | COc1cc(-c2cccc(-c3cccc(NC(=O)c4cc5n(n4)CCCC5NCCO)c3Cl)c2Cl)cc(F)c1CNCCO (stereo not drawn) [Compound 124, N-(2,2'-dichloro-3"-fluoro-4"-(((2-hydroxyethyl)amino)methyl)-5"-methoxy-[1,1':3',1"-terphenyl]-3-yl)-4-((2-hydroxyethyl)amino)-4,5,6,7-tetrahydropyrazolo[1,5-a]pyridine-2-carboxamide] | < 10 nM
8 | COc1cc(-c2cccc(-c3cccc(NC(=O)c4cc5n(n4)CCCC5N4CC[C@@H](O)C4)c3Cl)c2Cl)cc(F)c1CNCCO (stereo partly drawn) [Compound 125, N-(2,2'-dichloro-3"-fluoro-4"-(((2-hydroxyethyl)amino)methyl)-5"-methoxy-[1,1':3',1"-terphenyl]-3-yl)-4-((R)-3-hydroxypyrrolidin-1-yl)-4,5,6,7-tetrahydropyrazolo[1,5-a]pyridine-2-carboxamide] | < 10 nM
9 | COc1cc(-c2cccc(-c3cccc(NC(=O)c4cc5n(n4)CCCC5NCCO)c3Cl)c2Cl)cc(F)c1CNC[C@@H]1CCC(=O)N1 (stereo partly drawn) [Compound 126, N-(2,2'-dichloro-3"-fluoro-5"-methoxy-4"-(((((S)-5-oxopyrrolidin-2-yl)methyl)amino)methyl)-[1,1':3',1"-terphenyl]-3-yl)-4-((2-hydroxyethyl)amino)-4,5,6,7-tetrahydropyrazolo[1,5-a]pyridine-2-carboxamide] | 10 to 100 nM
10 | COc1cc(-c2cccc(-c3cccc(NC(=O)c4cc5n(n4)CCCC5N4CC[C@@H](O)C4)c3Cl)c2Cl)cc(F)c1CNC[C@@H]1CCC(=O)N1 (stereo partly drawn) [Compound 127, N-(2,2'-dichloro-3"-fluoro-5"-methoxy-4"-(((((S)-5-oxopyrrolidin-2-yl)methyl)amino)methyl)-[1,1':3',1"-terphenyl]-3-yl)-4-((R)-3-hydroxypyrrolidin-1-yl)-4,5,6,7-tetrahydropyrazolo[1,5-a]pyridine-2-carboxamide] | 10 to 100 nM
11 | COc1cc(-c2cccc(-c3cccc(NC(=O)c4cc5n(n4)CCCC5N4CC[C@@H](O)C4)c3Cl)c2Cl)cc(F)c1CNC(C)(C)C(=O)O (stereo partly drawn) [Compound 128, 2-(((2',2"-dichloro-3-fluoro-3"-(4-((R)-3-hydroxypyrrolidin-1-yl)-4,5,6,7-tetrahydropyrazolo[1,5-a]pyridine-2-carboxamido)-5-methoxy-[1,1':3',1"-terphenyl]-4-yl)methyl)amino)-2-methylpropanoic acid] | < 10 nM
12 | Cc1c(NC(=O)c2cc3n(n2)CCCC3O)cccc1-c1cccc(Nc2nc(C(F)F)nc3cc(CN4CC[C@@H](O)C4)cnc23)c1C (stereo partly drawn) [Compound 129, N-(3'-((2-(difluoromethyl)-7-(((R)-3-hydroxypyrrolidin-1-yl)methyl)pyrido[3,2-d]pyrimidin-4-yl)amino)-2,2'-dimethyl-[1,1'-biphenyl]-3-yl)-4-hydroxy-4,5,6,7-tetrahydropyrazolo[1,5-a]pyridine-2-carboxamide] | < 10 nM
13 | CC(=O)NCCNC1CCCn2nc(C(=O)Nc3cccc(-c4cccc(Nc5nc(C(F)F)nc6cc(CN7CC[C@@H](O)C7)cnc56)c4C)c3C)cc21 (stereo partly drawn) [Compound 130, 4-((2-acetamidoethyl)amino)-N-(3'-((2-(difluoromethyl)-7-(((R)-3-hydroxypyrrolidin-1-yl)methyl)pyrido[3,2-d]pyrimidin-4-yl)amino)-2,2'-dimethyl-[1,1'-biphenyl]-3-yl)-4,5,6,7-tetrahydropyrazolo[1,5-a]pyridine-2-carboxamide] | 10 to 100 nM
14 | Cc1c(NC(=O)c2cc3n(n2)CCCC3N2CC[C@@H](O)C2)cccc1-c1cccc(Nc2nc(C(F)F)nc3cc(CN4CC[C@@H](O)C4)cnc23)c1C (stereo partly drawn) [Compound 131, N-(3'-((2-(difluoromethyl)-7-(((R)-3-hydroxypyrrolidin-1-yl)methyl)pyrido[3,2-d]pyrimidin-4-yl)amino)-2,2'-dimethyl-[1,1'-biphenyl]-3-yl)-4-((R)-3-hydroxypyrrolidin-1-yl)-4,5,6,7-tetrahydropyrazolo[1,5-a]pyridine-2-carboxamide] | < 10 nM
15 | Cc1c(NC(=O)c2cc3n(n2)CCCC3NCCO)cccc1-c1cccc(Nc2nc(C(F)F)nc3cc(CN4CC[C@@H](O)C4)cnc23)c1C (stereo partly drawn) [Compound 132, N-(3'-((2-(difluoromethyl)-7-(((R)-3-hydroxypyrrolidin-1-yl)methyl)pyrido[3,2-d]pyrimidin-4-yl)amino)-2,2'-dimethyl-[1,1'-biphenyl]-3-yl)-4-((2-hydroxyethyl)amino)-4,5,6,7-tetrahydropyrazolo[1,5-a]pyridine-2-carboxamide] | < 10 nM
